Source: US5916887A, “4-substituted-3-(2-amino-2-cycloalkyl methyl)-acetamido azetidin-2-one derivatives as cysteine proteinase regulators” (National Research Council of Canada, priority 1997, dated 1999)

Columns and labels:
cathepsin L [1] = target: T1, cathepsin L (Rattus norvegicus, UniProt P07154); experiment: In vitro assay procedure for cathepsin L (recombinant rat cathepsin L, N-CBZ-Phe-Arg-AMC substrate); assay type: biochemical; conditions: pH 5.0, 10 min incubation at room temperature
Protocol: In vitro assay procedure for cathepsin L
To 170 μl of enzyme-buffer mixture (enzyme: recombinant rat cathepsin L, diluted to give approximate 15 Fluorescence units/min, buffer: 58.8 mM sodium citrate, 1.18 mM EDTA, 235 mM sodium chloride, 5 mM DTT, pH 5.0) 10 μL of inhibitor (dissolved in DMSO) is added. After 10 min of incubation at room temperature, 20 μl of 1 mM substrate (N-CBZ-Phe-Arg-AMC, dissolved in DMSO) is added to initiate reaction. Reading is followed up for 10 min on a Fluoroskan fluorescence reader (excitation at 380 nm emission at 460 nm).
(§1) A plot of percentage of inhibition vs inhibitor concentration is obtained, and IC50 is determined using a linear regression calculation (concentration of inhibitor which will give 50% inhibition).
Target sequence in this assay (P07154 114-334): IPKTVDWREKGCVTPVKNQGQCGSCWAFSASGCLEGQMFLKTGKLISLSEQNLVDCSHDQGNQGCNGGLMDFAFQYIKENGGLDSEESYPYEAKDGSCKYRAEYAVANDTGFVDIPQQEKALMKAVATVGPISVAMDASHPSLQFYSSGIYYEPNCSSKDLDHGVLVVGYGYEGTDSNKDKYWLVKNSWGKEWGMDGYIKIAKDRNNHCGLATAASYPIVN

cathepsin B [2] = target: T2, cathepsin B (Rattus norvegicus, UniProt P00787); experiment: In vitro assay procedure for cathepsin B (recombinant rat cathepsin B, N-CBZ-Phe-Arg-AMC substrate); assay type: biochemical; conditions: pH 5.1, 10 min incubation at room temperature
Protocol: In vitro assay procedure for cathepsin B
The compounds of formula I are tested for inhibition of cathepsin B using the known method (A. J. Barret et al., Biochem. J. 1982, 201, 189-198). To 170 μl of an enzyme-buffer mixture (enzyme: recombinant rat cathepsin B, diluted to give approximate 10 Fluorescence units/min, buffer: 56 mM sodium acetate, 1.124 mM EDTA, 10 mM DTT, pH 5.1) 10 μL of inhibitor (dissolved in DMSO) is added. After 10 min of incubation at room temperature, a 20 μl of 5 mM substrate (N-CBZ-Phe-Arg-AMC, dissolved in DMSO) is added to initiate reaction. Reading is followed up for 10 min on a Fluoroskan fluorescence reader (excitation at 380 nm, emission at 460 nm).
as §1
Target sequence in this assay (P00787 80-339): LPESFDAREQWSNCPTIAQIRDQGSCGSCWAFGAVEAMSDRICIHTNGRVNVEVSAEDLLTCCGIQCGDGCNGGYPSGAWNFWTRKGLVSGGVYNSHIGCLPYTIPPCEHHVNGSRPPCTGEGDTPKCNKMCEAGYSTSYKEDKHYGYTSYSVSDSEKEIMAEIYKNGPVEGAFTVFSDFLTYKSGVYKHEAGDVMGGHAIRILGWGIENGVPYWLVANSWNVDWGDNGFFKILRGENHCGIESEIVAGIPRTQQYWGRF

cathepsin L [3] = experiment: In vivo inhibition test for cathepsin L, mouse liver ML fraction; conditions: 50 mg/kg intraperitoneal, 6 hours, mean for 3 animals
Protocol: (§2) In vivo inhibition test for cathepsin B and L
(§3) The in vivo inhibition of cathepsin B and L are tested according to the known method (T. Towatari et al, FEBS, 1991, 280, 311-315). Inhibitor is injected intraperitoneally into rodents as a solution in saline containing DMSO or DMSO:PEG400 (1:1) at the doses indicated in Table 2. The rodents are killed after 6 hours, and the liver is perfused with ice-cold saline, and chilled on ice. Sample of 4 g of liver are homogenized in 7 volumes of 0.25 M sucrose. The homogenate is centrifuged at 800 g for 15 min. and the supernatant is centrifuged at 12,000 g for 30 min. The precipitate (crude mitochondrial-lysosomal fraction; ML fraction) is suspended in 2 ml of 0.05 M acetate buffer, pH 5.0, and then freeze-thawed for measurements of cathepsin B and L.

cathepsin B [4] = experiment: In vivo inhibition test for cathepsin B, mouse liver ML fraction; conditions: 50 mg/kg intraperitoneal, 6 hours, mean for 3 animals
Protocol: as §2, §3

cathepsin B [5] = target: T2, cathepsin B; experiment: In vivo inhibition test for cathepsin B, rat liver ML fraction; set-up: The precipitate (crude mitochondrial-lysosomal fraction; from tissue; host or cells: liver, crude mitochondrial-lysosomal (ML) fraction of dosed rodents; conditions: 6 hours, mean for 3 animals
Protocol: as §2, §3
Target sequence in this assay (P00787 80-126 limits assumed): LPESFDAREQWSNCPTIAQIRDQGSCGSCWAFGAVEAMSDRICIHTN
Target sequence in this assay (P00787 129-333 limits assumed): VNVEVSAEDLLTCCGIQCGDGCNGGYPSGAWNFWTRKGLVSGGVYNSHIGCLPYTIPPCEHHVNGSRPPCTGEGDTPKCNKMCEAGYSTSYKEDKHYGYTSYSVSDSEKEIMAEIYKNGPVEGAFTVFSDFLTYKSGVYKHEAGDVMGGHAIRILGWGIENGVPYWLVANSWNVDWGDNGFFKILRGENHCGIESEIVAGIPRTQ

cathepsin L [6] = target: T1, cathepsin L; experiment: In vivo inhibition test for cathepsin L, rat liver ML fraction; set-up: The precipitate (crude mitochondrial-lysosomal fraction; from tissue; host or cells: liver, crude mitochondrial-lysosomal (ML) fraction of dosed rodents; conditions: 6 hours, mean for 3 animals
Protocol: as §2, §3
Target sequence in this assay (P07154 114-288 limits assumed): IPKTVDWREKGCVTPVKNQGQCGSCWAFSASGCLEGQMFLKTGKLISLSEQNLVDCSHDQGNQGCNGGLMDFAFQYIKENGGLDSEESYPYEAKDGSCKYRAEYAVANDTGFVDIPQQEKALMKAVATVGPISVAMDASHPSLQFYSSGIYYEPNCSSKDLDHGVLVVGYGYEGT
Target sequence in this assay (P07154 291-334 limits assumed): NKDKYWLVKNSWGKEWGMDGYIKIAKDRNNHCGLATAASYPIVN

SMILES | IC50 (cathepsin L [1]) | IC50 (cathepsin B [2]) | also measured
CC(=O)O[C@@H]1NC(=O)[C@H]1NC(=O)[C@H](CC1CCCCC1)NC(=O)OCc1ccccc1 [Example 1, (3S,4S)-3-(2S-2-benzyloxycarbonylamino-2-cyclohexylmethyl-acetamido)-4-acetoxy-azetidin-2-one] | 780 nM | 8710 nM | 
CC(=O)O[C@@H]1NC(=O)[C@H]1NC(=O)[C@H](CC1CCCCC1)NC(=O)CCc1ccccc1 [Example 2, (3S,4S)-3-{2S-2-(3-phenylpropionoyl)amino-2-cyclohexylmethyl-acetamido}-4-acetoxy-azetidin-2-one] | 2320 nM | 11600 nM | 
N[C@@H](Cc1ccc(O[C@@H]2NC(=O)[C@H]2NC(=O)[C@H](CC2CCCCC2)NC(=O)CCc2ccccc2)cc1)C(=O)O [Example 3, (3S,4S)-3-{2S-2-(3-phenylpropionoyl)amino-2-cyclohexylmethyl-acetamido}-4-{4-(2S-2-amino-2-carboxy-ethyl)-phenoxy}-azetidin-2-one] | 1820 nM | 34000 nM | Inhibition Cathepsin L (cathepsin L [3]): 55%; Inhibition Cathepsin B (cathepsin B [4]): 65%
N[C@@H](Cc1ccc(O[C@H]2NC(=O)[C@H]2NC(=O)[C@H](CC2CCCCC2)NC(=O)CCc2ccccc2)cc1)C(=O)O [Example 4, (3S,4R)-3-{2S-2-(3-phenylpropionoyl)amino-2-cyclohexylmethyl-acetamido}-4-{4-(2S-2-amino-2-carboxy-ethyl)-phenoxy}-azetidin-2-one] | 1800 nM | 9200 nM | 
O=C(CCc1ccccc1)N[C@@H](CC1CCCCC1)C(=O)N[C@H]1C(=O)NC1Sc1ccccc1 (stereo partly drawn) [Example 5, (3S,4SR)-3-{2S-2-(3-phenylpropionoyl)amino-2-cyclohexylmethyl-acetamido}-4-phenylthio-azetidin-2-one] | 16 nM | 10400 nM | 
O=C(CCc1ccccc1)N[C@@H](CC1CCCCC1)C(=O)N[C@H]1C(=O)NC1S(=O)(=O)c1ccccc1 (stereo partly drawn) [Example 6, (3S,4SR)-3-{2S-2-(3-phenylpropionoyl)amino-2-cyclohexylmethyl-acetamido}-4-phenylsulfonyl-azetidin-2-one] | 78 nM | 29000 nM | 
CC(=O)O[C@@H]1NC(=O)[C@H]1NC(=O)[C@H](CC1CCCCC1)NC(=O)NCc1ccccc1 [Example 7, (3S,4S)-3-{2S-2-(benzylaminocarbonyl)amino-2-cyclohexylmethyl-acetamido}-4-acetoxy-azetidin-2-one] | 2300 nM | 11600 nM | 
CC(=O)O[C@@H]1NC(=O)[C@H]1NC(=O)[C@H](CC1CCCCC1)NS(=O)(=O)/C=C/c1ccccc1 [Example 8, (3S,4S)-3-{2S-2-(phenylethenylsulfonyl)amino-2-cyclohexylmethyl-acetamido}-4-acetoxy-azetidin-2-one] | 2160 nM | 11000 nM | 
Cc1cccc(O[C@@H]2NC(=O)[C@H]2NC(=O)[C@H](CC2CCCCC2)NC(=O)OCc2ccccc2)c1 [Example 9A, (3S,4S)-3-(2S-2-benzyloxycarbonylamino-2-cyclohexylmethyl-acetamido)-4-(3-methyl-phenoxy)-azetidin-2-one] | 83 nM | 6900 nM | 
Cc1cccc(O[C@H]2NC(=O)[C@H]2NC(=O)[C@H](CC2CCCCC2)NC(=O)OCc2ccccc2)c1 [Example 9B, (3S,4R)-3-(2S-2-benzyloxycarbonylamino-2-cyclohexylmethyl-acetamido)-4-(3-methyl-phenoxy)-azetidin-2-one] | 3 nM | 250 nM | 
O=C(C=Cc1ccncc1)N[C@@H](CC1CCCCC1)C(=O)N[C@@H]1C(=O)N[C@H]1Oc1ccccc1 [Example 10, (3S,4S)-3-{2S-2-[3-(pyridin-4-yl)propenoyl]amino-2-cyclohexylmethyl-acetamido}-4-phenoxy-azetidin-2-one] | 400 nM | 1000 nM | 
O=C(C=Cc1cccnc1)N[C@@H](CC1CCCCC1)C(=O)N[C@@H]1C(=O)N[C@H]1Oc1ccccc1 [Example 11, (3S,4S)-3-{2S-2-[3-(pyridin-3-yl)propenoyl]amino-2-cyclohexylmethyl-acetamido}-4-phenoxy-azetidin-2-one] | 430 nM | 2200 nM | 
N[C@@H](Cc1ccc(O[C@@H]2NC(=O)[C@H]2NC(=O)[C@H](Cc2ccccc2)NC(=O)CCc2ccccc2)cc1)C(=O)O [Ref. Compd.] |  |  | Inhibition Cathepsin B (cathepsin B [5]; 30 mg/kg intraperitoneal): 37%; Inhibition Cathepsin B (cathepsin B [5]; 70 mg/kg intraperitoneal): 56%; Inhibition Cathepsin L (cathepsin L [6]; 30 mg/kg intraperitoneal): 30%; Inhibition Cathepsin L (cathepsin L [6]; 70 mg/kg intraperitoneal): 55%
